Read-outs that look alike come from different tables or passages of the source.

The values below come from PMC3588188, “Interactions between Human Liver Fatty Acid Binding Protein and Peroxisome Proliferator Activated Receptor Selective Drugs” (PPAR Research, 2013).

In test [1] the target is T1, human L-FABP (Homo sapiens, UniProt P07148).
T1 sequence (P07148 1-127): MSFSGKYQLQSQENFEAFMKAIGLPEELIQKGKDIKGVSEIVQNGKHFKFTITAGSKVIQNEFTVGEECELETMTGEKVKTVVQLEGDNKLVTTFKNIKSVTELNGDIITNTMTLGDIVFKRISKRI
Briefly: Fluorescent binding cavity probe binding to L-FABP.

The target of test [2] is T2, human PPARδ LBD (aa 171–441) (Homo sapiens, UniProt Q03181).
T2 construct: human PPARδ (aa 171–441); [His]6 (N); made in house; host or cells: E. coli BL21 Codon Plus (DE3)-RIL (plasmid from William Hunter, University of Dundee)
T2 sequence (Q03181 171-441): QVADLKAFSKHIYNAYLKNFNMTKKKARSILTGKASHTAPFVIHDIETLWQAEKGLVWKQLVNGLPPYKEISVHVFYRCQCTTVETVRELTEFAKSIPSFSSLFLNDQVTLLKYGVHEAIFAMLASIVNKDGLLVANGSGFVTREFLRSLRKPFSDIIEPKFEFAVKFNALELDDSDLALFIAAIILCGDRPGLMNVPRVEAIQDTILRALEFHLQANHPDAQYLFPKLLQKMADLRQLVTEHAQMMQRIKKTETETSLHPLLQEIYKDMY
Briefly: cis-parinaric acid fluorescence displacement assay with PPARδ LBD. The conditions noted are these: cis-parinaric acid (2 μM) displacement, LBD 1 μM; nd = no binding detected; read-out: Ki, PPARδLBD. The method, then: (§1) Proteins were resolved using a step gradient of 0–300 mM imidazole in buffer A (50 mM Tris-HCl, pH 8.0; 500 mM NaCl; 0.5 mM ethylenediaminetetraacetic acid (EDTA); 1 mM dithiothreitol (DTT); 5% (v/v) glycerol) at a flow rate of 5 mL/min (4 column volumes (CVs) washout unbound sample; 0%–30% imidazole over 5 CVs; hold 30% for 2 CVs; 30%–100% imidazole over 5 CVs; hold 100% for 3 CVs).

Test [3] addresses T1, human L-FABP. Briefly: ANS fluorescence displacement assay with L-FABP.
The target of test [4] is T3, human PPARα LBD (aa 196–468) (Homo sapiens, UniProt Q07869).
T3 construct: LBD of human PPARα (aa 196–468); [His]6 (N); made in house; host or cells: E. coli BL21 Codon Plus (DE3)-RIL (plasmid from Krister Bamberg, Astra-Zeneca)
T3 sequence (Q07869 196-468): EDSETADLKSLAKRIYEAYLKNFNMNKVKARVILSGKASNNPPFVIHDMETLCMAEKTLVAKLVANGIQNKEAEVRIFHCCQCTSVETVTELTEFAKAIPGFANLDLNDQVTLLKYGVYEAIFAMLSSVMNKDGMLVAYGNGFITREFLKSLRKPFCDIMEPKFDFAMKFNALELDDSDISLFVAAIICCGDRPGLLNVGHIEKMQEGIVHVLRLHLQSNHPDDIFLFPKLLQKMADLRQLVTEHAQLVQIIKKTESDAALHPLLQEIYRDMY
Briefly: cis-parinaric acid fluorescence displacement assay with PPARα LBD. Conditions: cis-parinaric acid (2 μM) displacement, LBD 1 μM; nd = no binding detected; read-out: Ki, PPARαLBD. The method, then:
as §1

In test [5] the target is T1, human L-FABP. Briefly: Limited proteolysis of L-FABP with trypsin. The conditions noted are these: drug 0-5 μM, L-FABP 50 μM, 1 hr at 20°C. On the set-up: [His]6 (N); made in house; host or cells: E. coli BL21 Codon Plus (DE3)-RIL. The method, then:
The limited proteolysis of L-FABP (50 μM) with sequencing grade trypsin was carried out in buffer D (20 mM Tris-HCl, pH 8.0; 50 mM NaCl; […]. Apo- or holo-drug (0, 0.1, 0.4, 1.0, 5 μM final drug concentration) protein samples were equilibrated with the drug at 20°C for 15 min before protease was added. Digestion reactions were stopped by the addition of 5 μL of 50 mM phenylmethanesulfonyl fluoride (PMSF) followed by one volume of SDS-PAGE sample buffer (12.5% 0.5 M Tris-HCl pH 6.8; 0.005% bromophenol blue; 10% SDS; 10% glycerol; 2% β-mercaptoethanol) and heated for 2 min at 100°C. Samples were resolved on 4% stacking, 20% resolving polyacrylamide gels at 4°C at a constant voltage of 80 V, using the Laemmli buffer system. Gels were stained with Coomassie Blue G-250 and destained with 50% methanol/10% acetic acid (v/v) solution. Gels were dried between cellulose sheets and scanned at 1200 dpi. Protein bands were quantified densitometrically using LabImage 1D gel analysis software V3.4 (Kapelan GmbH, http://www.kapelan-bioimaging.com/).

Test [6] has as its target T1, human L-FABP. Briefly: cis-parinaric acid fluorescence displacement assay with L-FABP. Conditions: for displacement of cis-parinaric acid fluorescence from L-FABP: extent of probe displacement by drug titration.
The target of test [7] is T1, human L-FABP. Briefly: Differential scanning calorimetry of L-FABP. On the set-up: [His]6 (N); made in house; host or cells: E. coli BL21 Codon Plus (DE3)-RIL. Conditions: holo-drug L-FABP; apo L-FABP Tm = 80.1; scan rate 0.5°C/min. As to the method: DSC measurements were performed on N-DSC II calorimeter (Calorimetry Sciences Corporation, UT, USA) at a heating rate of 0.5°C/min. For preparation of 250 μM protein sample solutions, L-FABP was extensively buffer exchanged into buffer E (20 mM Tris-HCl pH 8.0) by ultrafiltration using Amicon Ultra 3 K centrifugal concentrators and degassed prior to filling the calorimeter cells. The filtrate from the sample preparation was used as a reference buffer for the DSC measurements. The thermal transition mid-point temperatures (T m) were calculated using CpCalc software (Calorimetry Sciences Corporation, UT, USA).

The target in another test is T4, PPARαLBD (Homo sapiens, UniProt Q07869).
T4 construct: LBD of human PPARα (aa 196–468); [His]6 (N); made in house; host or cells: E. coli BL21 Codon Plus (DE3)-RIL (plasmid from Krister Bamberg, Astra-Zeneca)
T4 sequence (Q07869 196-468): T3 sequence (Q07869 196-468)
Briefly: PPARαLBD protection from limited proteolysis (western blot). Conditions: PPARαLBD 30 μM, drug 0, 1, 5 μM, trypsin 30 min at 20°C. From the text:
[…] […] The reaction was quenched by the addition of PMSF and one volume of SDS-PAGE sample buffer as detailed above. Samples were resolved by 15% resolving SDS-PAGE polyacrylamide gels then transferred to a PVDF membrane and probed with anti-human PPARα antibody (mapping to C-terminal aa 420–468 of the PPARαLBD; cat. no. sc1982 Santa-Cruz Biotechnology, Santa Cruz, CA, USA) by western blotting.

For test [8], the target named is T5, human PPARγ LBD (aa 193–475) (Homo sapiens, UniProt P37231).
T5 construct: human PPARγ (aa 193–475); [His]6 (N); made in house; host or cells: E. coli BL21 Codon Plus (DE3)-RIL (plasmid from Krister Bamberg, Astra-Zeneca)
T5 sequence (P37231 193-475 isoform P37231-2): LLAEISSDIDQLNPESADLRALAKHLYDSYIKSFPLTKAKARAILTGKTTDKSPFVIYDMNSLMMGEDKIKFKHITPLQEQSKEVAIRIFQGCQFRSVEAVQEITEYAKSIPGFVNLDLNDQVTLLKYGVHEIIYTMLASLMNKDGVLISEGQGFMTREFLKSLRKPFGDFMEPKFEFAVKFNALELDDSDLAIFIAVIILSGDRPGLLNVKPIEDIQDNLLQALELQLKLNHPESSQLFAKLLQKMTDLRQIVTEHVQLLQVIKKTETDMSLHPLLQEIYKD
Briefly: cis-parinaric acid fluorescence displacement assay with PPARγ LBD. The format is binding. As to the method: as §1

The mark [9] stands for this setting: cis-parinaric acid (2 μM) displacement, LBD 1 μM, nd = no binding detected, read-out: Ki, PPARγLBD.

`O=S(=O)(O)c1cccc2cccc(Nc3ccccc3)c12` gave a Kd on human L-FABP [1] of 6000 ± 2600 nM.
Consider `CC(C)(Oc1ccc(C(=O)c2ccc(Cl)cc2)cc1)C(=O)O` [Fenofibric acid], for which the Ki worked out at 49000 ± 4000 nM in test [2], 1000 ± 200 nM on human L-FABP [3] and 10000 ± 3000 nM in [4].
With `CN(CCOc1ccc(C[C@H](Nc2ccccc2C(=O)c2ccccc2)C(=O)O)cc1)c1ccccn1` [GW1929], the Ki on human L-FABP [3] came to 1600 ± 700 nM.
Take `CC(C)(Sc1ccc(CCN(CCCCC2CCCCC2)C(=O)NC2CCCCC2)cc1)C(=O)O` [GW7647]: the “protection of L-FABP from limited proteolysis” value on human L-FABP [5] was “afforded more resistance to proteolysis”. The Ki at human L-FABP [3] came out at 320 ± 130 nM. Also, at human L-FABP [6], the Ki was 550 nM and the “displacement of cis-parinaric acid fluorescence from L-FABP” value is given as “could not completely displace the cis-parinaric acid fluorescence”. The “thermal transition mid-point temperature (Tm) of L-FABP in complex with drug” value at human L-FABP [7] worked out at 86.7 °C. At PPARαLBD, the “protection of PPARαLBD from limited proteolysis” value is recorded as “afforded protection to the PPARαLBD against proteolysis”.
Take `Cc1nc(-c2ccc(C(F)(F)F)cc2)sc1C(=O)NCc1ccc(OC(C)(C)C(=O)O)cc1` [GW590735]: the Ki was 4400 ± 2300 nM in [8] (setting [9]), 23000 ± 4000 nM in [2] and 20000 ± 3800 nM on human L-FABP [3].
On to `CCCc1c(OCCCOc2ccc(OCC(=O)O)cc2)ccc(C(C)=O)c1O` [L-165,041], for which the Ki in test [8] (setting [9]) was 12000 ± 2100 nM; in test [2] it was 800 ± 300 nM; at human L-FABP [3], 1400 ± 600 nM; at human L-FABP [6] it was 2300 nM; in [4], 4200 ± 400 nM. The “protection of L-FABP from limited proteolysis” value at human L-FABP [5] is “protects L-FABP from limited proteolysis”. Further, on human L-FABP [6], the “displacement of cis-parinaric acid fluorescence from L-FABP” value is “could not completely displace the cis-parinaric acid fluorescence”.
Take `CCCCCCCC/C=C\CCCCCCCC(=O)O` [Oleate]: the inhibition constant Ki in [8] worked out at 600 ± 15 nM; in [2] it was 1100 ± 260 nM; in test [4], 210 ± 80 nM.
In the case of `CN(CCOc1ccc(CC2SC(=O)NC2=O)cc1)c1ccccn1` (centres unmarked) [Rosiglitazone], at human L-FABP [3], the affinity, expressed as Ki, was 2800 ± 1100 nM.
`Cc1c(C)c2c(c(C)c1O)CCC(C)(COc1ccc(CC3SC(=O)NC3=O)cc1)O2` (centres unmarked) [Troglitazone] yielded a Ki on human L-FABP [3] of 1700 ± 500 nM.
